We go through two molecules from ChEMBL document CHEMBL3244122, “Symbiotic approach to drug design: antihypertensive beta-adrenergic blocking agents” (J Med Chem, 1979).

The subject of series [1] is Rattus norvegicus. In words: Antihypertensive activity in spontaneously hypertensive Wistar-Okamoto rat assessed as maximal fall in mean arterial pressure at 20 mg/kg, ip. Conditions: route intraperitoneal. The class given is functional, Artery.
For series [2], the system named is Rattus norvegicus. In words: Antihypertensive activity in spontaneously hypertensive Wistar-Okamoto rat assessed as duration of action at 20 mg/kg, po. It is filed as functional.
Series [3] has as its system Rattus norvegicus. Put plainly: Antihypertensive activity in spontaneously hypertensive Wistar-Okamoto rat assessed as duration of action at 20 mg/kg, ip. It is filed as functional. The conditions noted are these: route intraperitoneal.
The subject of series [4] is Canis familiaris. In words: Vasodilatory activity in anesthetized dog assessed as increase in iliac blood flow […] ia. It is filed as functional, Canis lupus familiaris, Artery.
For series [5], the system named is Canis familiaris. Put plainly: Vasodilatory activity in anesthetized dog assessed as increase in iliac blood flow […] measured after 2000 ug/kg, iv beta-adrenergic receptor blocker timolol administration. The class given is functional, Canis lupus familiaris, Artery.
For series [6], the system named is Canis familiaris. In words: In vivo beta-adrenergic receptor blockade in iv dosed anesthetized dog assessed as inhibition of isoproterenol-induced hypotension. It is filed as functional. Conditions: Canis lupus familiaris.
In series [7] the test system is Canis familiaris. Put plainly: In vivo beta-adrenergic receptor blockade in iv dosed anesthetized dog assessed as inhibition of isoproterenol-induced tachycardia. It is filed as functional. Conditions: Canis lupus familiaris.
Series [8] has as its system Rattus norvegicus. In words: Antihypertensive activity in spontaneously hypertensive Wistar-Okamoto rat assessed as maximal fall in mean arterial pressure at 5 mg/kg, ip. The class given is functional, Artery. The conditions noted are these: route intraperitoneal.
The test system of series [9] is Rattus norvegicus. In words: Antihypertensive activity in spontaneously hypertensive Wistar-Okamoto rat assessed as duration of action at 5 mg/kg, ip. The class given is functional. Conditions: route intraperitoneal.
Series [10] relates to Rattus norvegicus. Put plainly: Antihypertensive activity in spontaneously hypertensive Wistar-Okamoto rat assessed as maximal fall in mean arterial pressure at 20 mg/kg, po. It is filed as functional, Artery.
Series [11] concerns Rattus norvegicus. Put plainly: Antihypertensive activity in po dosed spontaneously hypertensive Wistar-Okamoto rat assessed as maximal fall in mean arterial pressure. The class given is functional, organism-based. The conditions noted are these: Artery.
In a further series the test system is Oryctolagus cuniculus. Put plainly: Toxicity in rabbit assessed as teratogenicity measured after high drug dose administration. The conditions noted are these: in vivo. The class given is organism-based.

As to `CC(C)NCC(O)COc1ncccc1C#N` (configuration not stated), the Activity with Rattus norvegicus [1] amounted to 59 mmHg; with Canis familiaris [4], 59 mL/min; in the series on Canis familiaris [5] it was 48 mL/min; with Rattus norvegicus [8], 26 mmHg; with Rattus norvegicus [10], 40 mmHg. Further, the Time with Rattus norvegicus [2] worked out at 4 h; in the series with Rattus norvegicus [3], 8 h; with Rattus norvegicus [9] it was 2 h. Further, the results for the ED50 in the series with Canis familiaris [6] and in the series with Canis familiaris [7] were 0.03 mg/kg and 0.005 mg/kg, respectively.

For the molecule `CC(C)(C)NCC(O)COc1ncccc1C#N` (configuration not stated), in the series with Rattus norvegicus [11], the inhibition entry was “Dose-dependent effect”. The Activity entry in the series with Oryctolagus cuniculus is listed as “Toxic”.
